Source: patent publication US20260256790A1, “DEBIO-0123 IN COMBINATION WITH TEMOZOLOMIDE AND RADIOTHERAPY FOR USE IN TREATING GLIOMA” (Debiopharm International S.A., priority 2023, published 2026)
Like-named read-outs stand apart in the source and are kept apart here.

Columns and labels:
[1] = Plasma and brain concentrations (PK) in healthy mice after oral dosing; format: in vivo, Nu/Nu mice; conditions: 30 mg/kg, oral; for Kp / Cmax / AUC(0-inf) / AUC(0-t): male, Nu/Nu, mouse, po; for Kp: brain/plasma; for Cmax / AUC(0-inf) / AUC(0-t): plasma; for AUC(0-inf): read-out: AUCInf, plasma; for AUC(0-t): read-out: AUCLast, plasma
Description: Healthy male Nu/Nu mice were treated orally with either (i) a single dose of 30 mg/kg Compound of formula (I) ([…], 3 mice per time-point), (ii) 30 mg/kg of Compound of formula (I) given once a day for four consecutive days (27 mice in total, 3 mice per time-point), (iii) 30 mg/kg of AZD-1775 (adavosertib, purchased from Combi-Blocks, San Diego, USA) given twice a day for three consecutive days and once on day four (27 mice in total, 3 mice per time-point), (iv) or 80 mg/kg of Zn-c3 (purchased from EOS Med Chem, Jina City, China) given once a day for four consecutive days (27 mice in total, 3 mice per time-point). The doses used for each compound have previously been reported as active dose levels. Compound of formula (I) was formulated as a suspension in 0.5% methylcellulose with 1% Tween 80 and administered at a concentration of 3.0 mg/mL. […] The dosing volume of all formulations was 10 mL/kg. At designated time-points the mice were euthanized by carbon dioxide inhalation, blood samples were collected by cardiac puncture into K2EDTA containing tubes. The tubes were inverted several times, placed on ice and centrifuged within 30 min of collection (4° C. for 5 min at 6000 rpm) to obtain plasma. The plasma samples were snap frozen in dry ice and stored at −80° C. until analysis. The brain was collected, weighed and snap frozen in dry ice until further analysis. To obtain brain homogenates, firstly water was added to each brain (brain weight:water volume=1:4) then the brain was homogenized with a H-speed dispersator (time procedure: homogenizing for 10 s and interval of 10 s per time, total 3-5 times; cleaning procedure for dispersator: Water-Methanol-Ethanol-Water, 10 s each). The brain homogenate samples were transferred to individual tubes and stored at −80° C. prior to analysis. The mouse plasma and brain samples were analysed as follows. For each analytical batch of plasma and brain samples, the standard and quality control (QC) samples were freshly prepared in blank male Nu/Nu mouse plasma (with K2EDTA anticoagulant) and brain homogenate. To an aliquot of each standard, QC, control blank and study samples, internal standard (^13CD6-Compound of formula (I) for Compound of formula (I), terfenadine for AZD-1775 and Zn-c3) in methanol/acetonitrile (1:1, v/v) was added. The samples were mixed for 1 minute and centrifuged at 4000 rpm at 4° C. for 15 minutes. Supernatants were transferred and diluted in MeOH/water (1:1, v/v, with 0.1% FA) prior to LC-MS/MS injection. Chromatographic separation was achieved on an Shimadzu LC-20AD using a Kinetex 2.6μ C18 100A column (50 mm*3.00 mm) for Compound of formula (I) and AZD-1775 samples and a ACE 5 C4 column (50 mm*2.1 mm) for Zn-c3 samples with gradient elution using the following conditions: flow rate: 0.7 mL/min; run time: 3.0 min; mobile phase: A: 5 mM NH4OAc (0.1% FA), B: Acetonitrile (0.1% FA). Detection was accomplished with an AB Sciex 5500 utilizing electrospray MS/MS in positive ion multiple reaction monitoring mode (MRM). The MRM channels were 511.29/98 for Compound of formula (I), 501.47/442.20 for AZD-1775 and 527.36/468.10 for Zn-c3. The MRM channels of internal standard were 518.17/102.10 (^13CD6-Compound of formula (I)) for Compound of formula (I), 472.40/436.40 (terfenadine) for AZD-1775 and Zn-c3. The measured plasma and brain concentrations at each time-point, the nominal sample collection time, and intended dosages were used for pharmacokinetic analysis. The PK parameters of all study compounds were determined by non-compartmental analysis using WinNonlin Version 8.0 (Pharsight).

[2] = CSF and matching plasma concentrations in glioma patients (clinical trial Arms A and B); format: in vivo, human
Description: In the clinical trial described in Example 9, cerebrospinal fluid (CSF) stabilized with formic acid 0.5% and matching plasma samples collected on K2 EDTA were drawn from 3 patients of Arm A on day 11 of cycle 1 (i.e. 2 patients at 150 mg and 1 patient at 200 mg of Study drug) and 1 patient of Arm B on Week 3 day 1 (i.e. Day 15 after daily doses of Study drug at 90 mg).
Study drug (parent, active moiety) and its active metabolite N^32-desmethyl-Study drug were measured using LC-MS/MS methods. Results were provided in ng per mL of plasma or CSF, and then converted to nmol/L using the molecular weights of the Study drug (511.45 g/mol) and N^32-desmethyl-Study drug (497.42 g/mol).
Thus, the unbound (or free fraction) of the Study Drug and the N^32-desmethyl-Study drug are calculated.
In CSF, the total protein concentration varies between 0.2% and 0.5% of the total protein concentration of blood (H. Reiber, Clinica Chimica Acta, 2001; Schilde L M et al., PLoS ONE, 2018), therefore the concentration measured in CSF essentially corresponds to the free fraction of the compounds.
For each of the 4 patients, the ratio CSF/plasma of a given compound (Study drug parent or metabolite) was calculated using the CSF concentration of said compound (in nmol/L) and the unbound or free fraction of said compound in plasma (in nmol/L).

For `Cc1cc(Nc2ncc3c(n2)N(C)CN(c2c(Cl)cccc2Cl)C3=O)ccc1C1CCN(C)CC1` [Compound of formula (I)], the “AUCInf, brain” value ([1]; qd for four days, day 4) was 31763 ng·h/g, the “AUCLast, brain” value ([1]; qd for four days, day 4) was 31610 ng·h/g and the “Cmax, brain” value ([1]; qd for four days, day 4) was 1963 ng/g. The “AUCInf, brain” value ([1]; single dose, day 1) was 37471 ng·h/g, the “AUCLast, brain” value ([1]; single dose, day 1) was 37368 ng·h/g and the “Cmax, brain” value ([1]; single dose, day 1) was 3557 ng/g. The Kp ([1]; qd for four days, day 4, read-out: Brain to plasma ratio based on AUCInf) was 0.489, the Kp ([1]; qd for four days, day 4, read-out: Brain to plasma ratio based on AUCLast) was 0.488 and the Kp ([1]; qd for four days, day 4, read-out: Brain to plasma ratio based on Cmax) was 0.498. The Kp ([1]; single dose, day 1, read-out: Brain to plasma ratio based on AUCInf) was 0.44, the Kp ([1]; single dose, day 1, read-out: Brain to plasma ratio based on AUCLast) was 0.439 and the Kp ([1]; single dose, day 1, read-out: Brain to plasma ratio based on Cmax) was 0.505. For the same molecule, the Cmax ([1]; qd for four days, day 4) was 3940 ng/mL, the AUC(0-inf) ([1]; qd for four days, day 4) was 65000 ng·h/mL and the AUC(0-t) ([1]; qd for four days, day 4) was 64800 ng·h/mL. It also gave a Cmax ([1]; single dose, day 1) of 7040 ng/mL, an AUC(0-inf) ([1]; single dose, day 1) of 85200 ng·h/mL and an AUC(0-t) ([1]; single dose, day 1) of 85100 ng·h/mL. The “CSF to “unbound plasma” ratio” value ([2]; Arm A, 150 mg, day 11 of cycle 1, listed as Study drug) was 0.33, the Kp at 15 day ([2]; human, CSF / unbound plasma, 90 mg, Arm B, 90 mg daily, Week 3 day 1 (Day 15), read-out: CSF to “unbound plasma” ratio) was 0.42 and the Kp at 11 day ([2]; human, CSF / unbound plasma, 150 mg, Arm A, 150 mg, day 11 of cycle 1, read-out: CSF to “unbound plasma” ratio) was 0.35. For the same molecule, the Kp at 11 day ([2]; human, CSF / unbound plasma, 200 mg, Arm A, 200 mg, day 11 of cycle 1, read-out: CSF to “unbound plasma” ratio) was 0.38, the concentration at 15 day ([2]; human, CSF, 90 mg, Arm B, 90 mg daily, Week 3 day 1 (Day 15), read-out: CSF concentration) was 21.3 nM and the concentration at 15 day ([2]; human, CSF, 90 mg, Arm B, 90 mg daily, Week 3 day 1 (Day 15), read-out: Raw data concentration in CSF) was 10.9 ng/mL. The concentration at 11 day ([2]; human, CSF, 200 mg, Arm A, 200 mg, day 11 of cycle 1, read-out: CSF concentration) was 19.8 nM, the concentration at 11 day ([2]; human, CSF, 200 mg, Arm A, 200 mg, day 11 of cycle 1, read-out: Raw data concentration in CSF) was 10.1 ng/mL and the Kp ([2]; human, CSF/unbound plasma, 4 patients, Arms A and B, read-out: CSF/plasma ratio) was 0.33 to 0.42. For the same molecule, the concentration at 15 day ([2]; human, plasma (unbound), 90 mg, Arm B, 90 mg daily, Week 3 day 1 (Day 15), read-out: Unbound plasma concentration) was 50.3 nM, the concentration at 11 day ([2]; human, plasma (unbound), 200 mg, Arm A, 200 mg, day 11 of cycle 1, read-out: Unbound plasma concentration) was 52.4 nM and the concentration at 15 day ([2]; human, plasma, 90 mg, Arm B, 90 mg daily, Week 3 day 1 (Day 15), read-out: Raw data concentration in plasma) was 309 ng/mL. The concentration at 11 day ([2]; human, plasma, 200 mg, Arm A, 200 mg, day 11 of cycle 1, read-out: Raw data concentration in plasma) was 322 ng/mL.
